Laboratory results from US20210122730A1, “GLUCOCORTICOID RECEPTOR MODULATORS” (ORIC Pharmaceuticals, Inc., priority 2017, published 2021).

The compounds below were run against T1, GR (Homo sapiens, UniProt P04150) (assay: In Vitro GR Luciferase Reporter Assay (antagonist mode, CHO-K1-GR-MMTV-Luc reporter cells)). Settings: antagonist mode, 10 nM Dexamethasone.
T1 construct: expressed in transfected cells; host or cells: CHO-K1
T1 sequence (P04150 1-777): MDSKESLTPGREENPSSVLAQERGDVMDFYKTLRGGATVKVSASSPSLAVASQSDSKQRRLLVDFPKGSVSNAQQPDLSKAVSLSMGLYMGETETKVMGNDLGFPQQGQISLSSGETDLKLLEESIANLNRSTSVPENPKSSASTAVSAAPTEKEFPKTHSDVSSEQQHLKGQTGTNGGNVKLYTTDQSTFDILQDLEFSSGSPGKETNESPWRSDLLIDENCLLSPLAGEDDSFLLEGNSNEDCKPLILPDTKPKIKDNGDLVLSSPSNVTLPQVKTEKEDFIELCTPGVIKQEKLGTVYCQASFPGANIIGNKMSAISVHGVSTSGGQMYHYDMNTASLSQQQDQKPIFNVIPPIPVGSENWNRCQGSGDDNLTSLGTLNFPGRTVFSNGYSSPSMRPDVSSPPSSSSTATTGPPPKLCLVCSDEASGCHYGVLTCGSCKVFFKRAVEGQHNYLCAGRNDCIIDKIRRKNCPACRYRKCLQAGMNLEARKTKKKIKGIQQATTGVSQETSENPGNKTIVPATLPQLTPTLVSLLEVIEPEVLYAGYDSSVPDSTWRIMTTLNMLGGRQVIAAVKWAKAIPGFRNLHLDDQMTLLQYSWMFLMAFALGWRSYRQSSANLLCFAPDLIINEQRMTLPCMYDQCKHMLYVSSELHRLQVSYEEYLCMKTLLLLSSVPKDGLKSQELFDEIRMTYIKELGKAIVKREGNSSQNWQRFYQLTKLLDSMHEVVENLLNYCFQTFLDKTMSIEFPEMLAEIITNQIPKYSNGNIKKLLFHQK
Assay type: cell-based
How it was run: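 Antagonist mode: compounds (8 serial 1:5 dilutions) added to GR-MMTV-luciferase CHO-K1 reporter cells co-exposed to 10 nM dexamethasone final, in phenol red-free DMEM plus 10% CSS. After roughly 18-24 h at 37° C, OneGlo luminescence read and IC50 calculated.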

IC50, ≤ 100 nM:
COCCN([C@H]1CCC2=Cc3c(cnn3-c3ccc(F)cc3)C[C@]2(C(=O)c2ncc(C(F)(F)F)s2)C1)S(=O)(=O)c1ccc(F)cc1 [Example 372, 4-fluoro-N-((4aS,6S)-1-(4-fluorophenyl)-4a-(5-(trifluoromethyl)thiazole-2-carbonyl)-4,4a,5,6,7,8-hexahydro-1H-benzo[f]indazol-6-yl)-N-(2-methoxyethyl)benzenesulfon-amide]
Cn1cc(S(=O)(=O)CC2CCC3=Cc4c(cnn4-c4ccc(F)cc4)C[C@]3(C(=O)c3ncc(C(F)(F)F)s3)C2)cn1 (stereo partly drawn) [Example 375, ((4aR)-1-(4-fluorophenyl)-6-(((1-methyl-1H-pyrazol-4-yl)sulfonyl)methyl)-1,4,5,6,7,8-hexahydro-4aH-benzo[f]indazol-4a-yl)(5-(trifluoromethyl)thiazol-2-yl)methanone]
CCN([C@H]1CCC2=Cc3c(cnn3-c3ccc(F)cc3)C[C@]2(C(=O)c2ncc(C(F)(F)F)s2)C1)S(=O)(=O)c1cncn1C [Example 376, N-ethyl-N-((4aS,6S)-1-(4-fluorophenyl)-4a-(5-(trifluoromethyl)thiazole-2-carbonyl)-4,4a,5,6,7,8-hexahydro-1H-benzo[f]indazol-6-yl)-1-methyl-1H-imidazole-5-sulfonamide]
Cn1cnc(S(=O)(=O)N(CC(F)(F)F)[C@H]2CCC3=Cc4c(cnn4-c4ccc(F)cc4)C[C@]3(C(=O)c3cc(C(F)(F)F)ccn3)C2)n1 [Example 378, N-((4aS,6S)-1-(4-fluorophenyl)-4a-(4-(trifluoromethyl)picolinoyl)-4,4a,5,6,7,8-hexahydro-1H-benzo[f]indazol-6-yl)-1-methyl-N-(2,2,2-trifluoroethyl)-1H-1,2,4-triazole-3-sulfonamide]
Cn1cnc(S(=O)(=O)CC2CCC3=Cc4c(cnn4-c4ccc(F)cc4)C[C@]3(C(=O)c3ncc(C(F)(F)F)s3)C2)n1 (stereo partly drawn) [Example 379, ((4aR)-1-(4-fluorophenyl)-6-(((1-methyl-1H-1,2,4-triazol-3-yl)sulfonyl)methyl)-1,4,5,6,7,8-hexahydro-4aH-benzo[f]indazol-4a-yl)(5-(trifluoromethyl)thiazol-2-yl)methanone]
Cn1ccc(S(=O)(=O)N(CCF)[C@H]2CCC3=Cc4c(cnn4-c4ccc(F)cc4)C[C@]3(C(=O)c3cc(C(F)(F)F)ccn3)C2)n1 [Example 380, N-(2-fluoroethyl)-N-((4aS,6S)-1-(4-fluorophenyl)-4a-(4-(trifluoromethyl)picolinoyl)-4,4a,5,6,7,8-hexahydro-1H-benzo[f]indazol-6-yl)-1-methyl-1H-pyrazole-3-sulfonamide]
CO[C@]1(C)C[C@H](N([C@H]2CCC3=Cc4c(cnn4-c4ccc(F)cc4)C[C@]3(C(=O)c3cc(Cl)ccn3)C2)S(=O)(=O)c2ccn(C)n2)C1 [Example 381, N-((4aS,6S)-4a-(4-chloropicolinoyl)-1-(4-fluorophenyl)-4,4a,5,6,7,8-hexahydro-1H-benzo[f]indazol-6-yl)-N-((1s,3R)-3-methoxy-3-methylcyclobutyl)-1-methyl-1H-pyrazole-3-sulfonamide]
Cn1cnc(S(=O)(=O)N(CCF)[C@H]2CCC3=Cc4c(cnn4-c4ccc(F)cc4)C[C@]3(C(=O)c3ncc(C(F)(F)F)s3)C2)n1 [Example 382, N-(2-fluoroethyl)-N-((4aS,6S)-1-(4-fluorophenyl)-4a-(5-(trifluoromethyl)thiazole-2-carbonyl)-4,4a,5,6,7,8-hexahydro-1H-benzo[f]indazol-6-yl)-1-methyl-1H-1,2,4-triazole-3-sulfonamide]
Cn1cnc(S(=O)(=O)N(CC(F)F)[C@H]2CCC3=Cc4c(cnn4-c4ccc(F)cc4)C[C@]3(C(=O)c3ncc(C(F)(F)F)s3)C2)c1 [Example 383, N-(2,2-difluoroethyl)-N-((4aS,6S)-1-(4-fluorophenyl)-4a-(5-(trifluoromethyl)thiazole-2-carbonyl)-4,4a,5,6,7,8-hexahydro-1H-benzo[f]indazol-6-yl)-1-methyl-1H-imidazole-4-sulfonamide]
CO[C@]1(C)C[C@H](N([C@H]2CCC3=Cc4c(cnn4-c4ccc(F)cc4)C[C@]3(C(=O)c3cc(C(F)(F)F)ccn3)C2)S(=O)(=O)c2ccn(C)n2)C1 [Example 384, N-((4aS,6S)-1-(4-fluorophenyl)-4a-(4-(trifluoromethyl)picolinoyl)-4,4a,5,6,7,8-hexahydro-1H-benzo[f]indazol-6-yl)-N-((1s,3R)-3-methoxy-3-methylcyclobutyl)-1-methyl-1H-pyrazole-3-sulfonamide]
Cn1cnc(S(=O)(=O)N(CCF)[C@H]2CCC3=Cc4c(cnn4-c4ccc(F)cc4)C[C@]3(C(=O)c3cc(C(F)(F)F)ccn3)C2)n1 [Example 385, N-(2-fluoroethyl)-N-((4aS,6S)-1-(4-fluorophenyl)-4a-(4-(trifluoromethyl)picolinoyl)-4,4a,5,6,7,8-hexahydro-1H-benzo[f]indazol-6-yl)-1-methyl-1H-1,2,4-triazole-3-sulfonamide]
O=C(c1ncc(C(F)(F)F)s1)[C@]12Cc3cnn(-c4ccc(F)cc4)c3C=C1CC[C@H](N(CCF)S(=O)(=O)c1ccc(F)cc1)C2 [Example 386, 4-fluoro-N-(2-fluoroethyl)-N-((4aS,6S)-1-(4-fluorophenyl)-4a-(5-(trifluoromethyl)thiazole-2-carbonyl)-4,4a,5,6,7,8-hexahydro-1H-benzo[f]indazol-6-yl)benzenesulfonamide]
O=C(c1cc(C(F)(F)F)ccn1)[C@]12Cc3cnn(-c4ccc(F)cc4)c3C=C1CC[C@H](N(CCF)S(=O)(=O)c1ccc(F)cc1)C2 [Example 387, 4-fluoro-N-(2-fluoroethyl)-N-((4aS,6S)-1-(4-fluorophenyl)-4a-(4-(trifluoromethyl)picolinoyl)-4,4a,5,6,7,8-hexahydro-1H-benzo[f]indazol-6-yl)benzenesulfonamide]
Cn1cnc(S(=O)(=O)N(CCC#N)[C@H]2CCC3=Cc4c(cnn4-c4ccc(F)cc4)C[C@]3(C(=O)c3ncc(C(F)(F)F)s3)C2)n1 [Example 388, N-(2-cyanoethyl)-N-((4aS,6S)-1-(4-fluorophenyl)-4a-(5-(trifluoromethyl)thiazole-2-carbonyl)-4,4a,5,6,7,8-hexahydro-1H-benzo[f]indazol-6-yl)-1-methyl-1H-1,2,4-triazole-3-sulfonamide]
O=C(c1cc(F)ccn1)[C@]12Cc3cnn(-c4ccc(F)cc4)c3C=C1CC[C@H](N(CCF)S(=O)(=O)c1ccc(F)cc1)C2 [Example 389, 4-fluoro-N-(2-fluoroethyl)-N-((4aS,6S)-1-(4-fluorophenyl)-4a-(4-fluoropicolinoyl)-4,4a,5,6,7,8-hexahydro-1H-benzo[f]indazol-6-yl)benzenesulfonamide]
O=C(c1cc(Cl)ccn1)[C@]12Cc3cnn(-c4ccc(F)cc4)c3C=C1CC[C@H](N(CCF)S(=O)(=O)c1ccc(F)cc1)C2 [Example 390, N-((4aS,6S)-4a-(4-chloropicolinoyl)-1-(4-fluorophenyl)-4,4a,5,6,7,8-hexahydro-1H-benzo[f]indazol-6-yl)-4-fluoro-N-(2-fluoroethyl)benzenesulfonamide]
COCCOCCN([C@H]1CCC2=Cc3c(cnn3-c3ccc(F)cc3)C[C@]2(C(=O)c2ncc(C(F)(F)F)s2)C1)S(=O)(=O)c1ccc(F)cc1 [Example 391, 4-fluoro-N-((4aS,6S)-1-(4-fluorophenyl)-4a-(5-(trifluoromethyl)thiazole-2-carbonyl)-4,4a,5,6,7,8-hexahydro-1H-benzo[f]indazol-6-yl)-N-(2-(2-methoxyethoxy)ethyl)benzene-sulfonamide]
Cn1cnc(S(=O)(=O)N(CCF)[C@H]2CCC3=Cc4c(cnn4-c4ccc(F)cc4)C[C@]3(C(=O)c3cc(F)ccn3)C2)n1 [Example 392, N-(2-fluoroethyl)-N-((4aS,6S)-1-(4-fluorophenyl)-4a-(4-fluoropicolinoyl)-4,4a,5,6,7,8-hexahydro-1H-benzo[f]indazol-6-yl)-1-methyl-1H-1,2,4-triazole-3-sulfonamide]
Cn1cnc(S(=O)(=O)N(CCF)[C@H]2CCC3=Cc4c(cnn4-c4ccc(F)cc4)C[C@]3(C(=O)c3cc(Cl)ccn3)C2)n1 [Example 393, N-((4aS,6S)-4a-(4-chloropicolinoyl)-1-(4-fluorophenyl)-4,4a,5,6,7,8-hexahydro-1H-benzo[f]indazol-6-yl)-N-(2-fluoroethyl)-1-methyl-1H-1,2,4-triazole-3-sulfonamide]
